Assay results: patent US20210255193A1, “LYSINE REACTIVE PROBES AND USES THEREOF” (The Scripps Research Institute, priority 2017, published 2021)

Tests used:
Assay in all cases: competitive isoTOP-ABPP
Type in all cases: binding
[1] = target: T1, ERO1L ERO1-like protein alpha (Homo sapiens, UniProt Q96HE7); settings: 50 uM, in vitro
T1 construct: isoTOP-ABPP experiments performed in cell lysates (in vitro); endogenous in cells; host or cells: soluble proteome of human cancer cell lines (MDA-MB-231; Ramos and Jurkat also prepared)
T1 sequence (Q96HE7 24-468): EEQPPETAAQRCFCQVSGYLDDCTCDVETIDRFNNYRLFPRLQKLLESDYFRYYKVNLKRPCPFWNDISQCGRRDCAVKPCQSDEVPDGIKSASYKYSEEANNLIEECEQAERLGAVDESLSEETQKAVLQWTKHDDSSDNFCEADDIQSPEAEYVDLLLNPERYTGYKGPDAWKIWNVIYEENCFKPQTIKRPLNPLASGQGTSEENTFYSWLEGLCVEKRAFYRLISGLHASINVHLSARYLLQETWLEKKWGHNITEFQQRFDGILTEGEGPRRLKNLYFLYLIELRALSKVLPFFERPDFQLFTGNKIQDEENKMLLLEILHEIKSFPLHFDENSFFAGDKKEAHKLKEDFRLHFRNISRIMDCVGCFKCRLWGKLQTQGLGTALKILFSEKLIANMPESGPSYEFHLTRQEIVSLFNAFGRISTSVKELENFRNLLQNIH
How it was run: (§1)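 Cell lysate treated in vitro with fragments (50 μM activated esters, 100 μM guanidinylating agents) or DMSO, labelled 1 h at ambient temperature with 0.1 mM STP-alkyne, CuAAC-tagged with light/heavy TEV tags, analysed by MS. R = DMSO/compound MS1 peak-area ratio; lysines with R≥4 called liganded.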

[2] = target: T2, RPS10 40S ribosomal protein S10 (Homo sapiens, UniProt P46783); settings: 50 uM, 231 sol, in vitro; for R value (DMSO/fragment) for probe 1 labeling: P46783_K139
T2 construct: isoTOP-ABPP experiments performed in cell lysates (in vitro); endogenous in cells; host or cells: soluble proteome of human cancer cell lines (MDA-MB-231; Ramos and Jurkat also prepared)
How it was run: as §1

TTR Transthyretin = target: T3, TTR Transthyretin (Homo sapiens, UniProt P02766); settings: for R value (DMSO/fragment) for probe 1 labeling: P02766_K35; for R value (DMSO/fragment) for probe 1 labeling / isoTOP-ABPP reactivity ratio at lysine P02766_K35 / isoTOP-ABPP ratio (R) at liganded lysine P02766_K35: 50 uM, in vitro; for R value (DMSO/fragment) for probe 1 labeling / isoTOP-ABPP reactivity ratio at lysine P02766_K35: 231 sol; for isoTOP-ABPP ratio (R) at liganded lysine P02766_K35: sol, 231
T3 construct: isoTOP-ABPP experiments performed in cell lysates (in vitro); endogenous in cells; host or cells: MDA-MB-231 soluble lysate
How it was run: as §1

[3] = target: T4, FH Fumarate hydratase, mitochondrial (Homo sapiens, UniProt P07954); settings: 50 uM, 231 sol, in vitro
T4 construct: isoTOP-ABPP experiments performed in cell lysates (in vitro); endogenous in cells; host or cells: MDA-MB-231 soluble lysate
T4 sequence (P07954 45-510): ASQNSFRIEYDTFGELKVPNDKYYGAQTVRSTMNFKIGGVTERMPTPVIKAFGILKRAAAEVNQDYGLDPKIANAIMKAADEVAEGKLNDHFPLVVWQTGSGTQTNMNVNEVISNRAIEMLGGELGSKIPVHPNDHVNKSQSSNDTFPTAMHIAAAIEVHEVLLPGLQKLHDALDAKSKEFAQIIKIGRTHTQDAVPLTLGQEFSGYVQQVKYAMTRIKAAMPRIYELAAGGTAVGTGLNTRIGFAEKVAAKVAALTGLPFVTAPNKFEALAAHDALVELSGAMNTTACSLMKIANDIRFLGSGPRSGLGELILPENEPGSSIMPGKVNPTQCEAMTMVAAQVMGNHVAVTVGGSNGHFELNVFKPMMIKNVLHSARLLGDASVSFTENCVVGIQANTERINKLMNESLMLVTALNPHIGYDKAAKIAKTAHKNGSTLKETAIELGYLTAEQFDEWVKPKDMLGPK
How it was run: as §1

DTYMK Thymidylate kinase = target: T5, DTYMK Thymidylate kinase (Homo sapiens, UniProt P23919); settings: 50 uM, in vitro; for isoTOP-ABPP reactivity ratio at lysine P23919_K118: 231 sol
T5 construct: isoTOP-ABPP experiments performed in cell lysates (in vitro); endogenous in cells; host or cells: soluble proteome of human cancer cell lines (MDA-MB-231; Ramos and Jurkat also prepared)
T5 sequence (P23919 1-212): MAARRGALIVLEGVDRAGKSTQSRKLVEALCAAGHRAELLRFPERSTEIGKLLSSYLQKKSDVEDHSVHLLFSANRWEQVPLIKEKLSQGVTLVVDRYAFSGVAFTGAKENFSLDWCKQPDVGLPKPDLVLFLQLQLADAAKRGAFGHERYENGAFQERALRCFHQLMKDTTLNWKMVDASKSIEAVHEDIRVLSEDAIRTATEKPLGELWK
How it was run: as §1

Row | SMILES | isoTOP-ABPP reactivity ratio at lysine P46783_K139 [2] | isoTOP-ABPP reactivity ratio at lysine P23919_K118 (DTYMK Thymidylate kinase) | isoTOP-ABPP reactivity ratio at lysine Q96HE7_K413 ([1]; 231 sol) | isoTOP-ABPP reactivity ratio at lysine P02766_K35 (TTR Transthyretin) | other results
1 | O=C(CCc1cn(-c2ccccc2)nc1-c1ccccc1)Oc1c(F)c(F)c(F)c(F)c1F [fragment 19, Pentafluorophenyl 3-(1,3-diphenyl-1H-pyrazol-4-yl)propanoate] | – | – | – | – | R value (DMSO/fragment) for probe 1 labeling ([1]; Q96HE7_K413, 231 sol): 0.5; R value (DMSO/fragment) for probe 1 labeling [2]: 1.0
2 | Cn1cc(CC(=O)Oc2c(F)c(F)c(F)c(F)c2F)c2ccccc21 [fragment 22, Pentafluorophenyl 2-(1-methyl-1H-indol-3-yl)acetate] | – | – | – | – | R value (DMSO/fragment) for probe 1 labeling (TTR Transthyretin): 2.6; R value (DMSO/fragment) for probe 1 labeling [2]: 0.9
3 | COc1cc(CCC(=O)Oc2c(F)c(F)c(F)c(F)c2F)cc(OC)c1OC [fragment 23, Pentafluorophenyl 3-(3,4,5-trimethoxyphenyl)propanoate] | – | – | – | – | R value (DMSO/fragment) for probe 1 labeling (TTR Transthyretin): 1.0; R value (DMSO/fragment) for probe 1 labeling ([3]; P07954_K311): 2.6
4 | O=C(Oc1c(F)c(F)c(F)c(F)c1F)C1CCN(C(=O)OCc2ccccc2)CC1 [fragment 24, 1-Benzyl 4-(pentafluorophenyl) piperidine-1,4-dicarboxylate] | 1.2 | 1.1 | – | – | –
5 | O=C(Oc1c(F)c(F)c(F)c(F)c1F)c1ccc2ccccc2n1 [fragment 25, Pentafluorophenyl quinoline-2-carboxylate] | – | 1.1 | – | – | –
6 | O=C(CCc1coc2cc(F)ccc2c1=O)Oc1c(F)c(F)c(F)c(F)c1F [fragment 26, Pentafluorophenyl 3-(7-fluoro-4-oxo-4H-chromen-3-yl)propanoate] | 1.0 | – | – | – | isoTOP-ABPP reactivity ratio at lysine P07954_K311 [3]: 2.4
7 | CCn1cc(C(=O)Oc2c(F)c(F)c(F)c(F)c2F)c(=O)c2ccc(C)nc21 [fragment 28, Pentafluorophenyl 1-ethyl-7-methyl-4-oxo-1,4-dihydro-1,8-naphthyridine-3-carboxylate] | – | 0.9 | 1.4 | – | –
8 | O=C(CCc1cn(-c2ccccc2)nc1-c1ccccc1)Oc1ccc([N+](=O)[O-])cc1[N+](=O)[O-] [fragment 29, 2,4-Dinitrophenyl 3-(1,3-diphenyl-1H-pyrazol-4-yl)propanoate] | 20.0 | 1.1 | 20.0 | 1.6 | –
9 | O=C(Oc1ccc([N+](=O)[O-])cc1[N+](=O)[O-])C(c1ccccc1)c1ccccc1 [fragment 30, 2,4-Dinitrophenyl 2,2-diphenylacetate] | 1.2 | – | 1.2 | 1.5 | isoTOP-ABPP reactivity ratio at lysine P07954_K311 [3]: 5.2
10 | O=C(Oc1ccc([N+](=O)[O-])cc1[N+](=O)[O-])c1cc(C(F)(F)F)cc(C(F)(F)F)c1 [fragment 31, 2,4-Dinitrophenyl 3,5-bis(trifluoromethyl)benzoate] | – | – | – | 16.1 | targeting of K35 (TTR Transthyretin; TTR K35): preferentially targeted; isoTOP-ABPP reactivity ratio at lysine P07954_K311 [3]: 1.4
11 | Cn1cc(CC(=O)Oc2ccc([N+](=O)[O-])cc2[N+](=O)[O-])c2ccccc21 [fragment 32, 2,4-Dinitrophenyl 2-(1-methyl-1H-indol-3-yl)acetate] | – | – | 20.0 | 3.1 | –
12 | O=C(Oc1ccc([N+](=O)[O-])cc1[N+](=O)[O-])C1CCN(C(=O)OCc2ccccc2)CC1 [fragment 34, 1-Benzyl 4-(2,4-dinitrophenyl) piperidine-1,4-dicarboxylate] | – | – | – | – | isoTOP-ABPP ratio (R) at liganded lysine P02766_K35 (TTR Transthyretin): 2.2
13 | O=C(Oc1ccc([N+](=O)[O-])cc1[N+](=O)[O-])c1ccc2ccccc2n1 [fragment 35, 2,4-Dinitrophenyl quinoline-2-carboxylate] | – | – | – | – | isoTOP-ABPP ratio (R) at liganded lysine Q96HE7_K413 ([1]; sol, 231): 2.2; isoTOP-ABPP ratio (R) at liganded lysine P02766_K35 (TTR Transthyretin): 15.6; isoTOP-ABPP ratio (R) at liganded lysine P23919_K118 (DTYMK Thymidylate kinase; sol, 231): 0.9
